Laboratory results published in the OPERA property sets (Mansouri et al. 2018).

Details: for log10 biotransformation half-life (days) / log10 BCF: fish

Compound | boiling point | melting point | also measured
CCCCCCCCCCCCCC | 254 °C | 5.8 °C | log10 biodegradation half-life (days): 1.36; log10 vapour pressure (mmHg): -1.94; ready biodegradability: readily biodegradable; log10 biotransformation half-life (days): 1.49
Cc1cc(O)c(C(C)(C)C)cc1C | 258 °C | 46 °C | –
CCc1c(C)c[nH]c1C | 199 °C | 0 °C | –
OCCSCCCCCCCCCCSCCO | – | 69.5 °C | –
CCCC[N+](=O)[O-] | 153 °C | -81.3 °C | log10 vapour pressure (mmHg): 0.579
Nc1ccc(C(F)(F)F)cc1 | – | 38 °C | –
CCOC(=O)NP(=O)(N1CC1)N1CC1 | – | 89 °C | –
CCCC(C)C(C)C(C)C (stereo not given) | 161 °C | – | –
N#CC(C#N)=C1c2cc([N+](=O)[O-])ccc2-c2c1cc([N+](=O)[O-])cc2[N+](=O)[O-] | – | 267 °C | –
CCCCC(=O)CCCC | 188 °C | -3.8 °C | log10 vapour pressure (mmHg): -0.258
CC(C)CN(CC(C)C)CC(C)C | 192 °C | -21.8 °C | –
O=C(O)[C@H](O)[C@@H](O)[C@H](O)[C@H](O)CO | – | 131 °C | –
COC(=O)c1cccc(C)c1S(=O)(=O)NC(=O)Nc1nc(OCC(F)(F)F)nc(N(C)C)n1 | – | – | log10 Koc (L/kg): 1.84
ClC1c2ccccc2CCc2ccccc21 | – | 106 °C | –
O=C(CC(=O)C(F)(F)F)c1cccs1 | – | 42 °C | –
Cc1ccc(O)c([N+](=O)[O-])c1 | – | 36.5 °C | log10 Henry constant (atm·m³/mol): -4.83; ready biodegradability: not readily biodegradable; log10 BCF: 0.95
O=C(c1ccc(F)cc1)C1CCN(CCn2c(=O)[nH]c3ccccc3c2=O)CC1 | – | 231 °C | –
CCc1sccc1C | 161 °C | – | –
CCNc1nc(NC(C)C)nc(SC)n1 | 345 °C | 88 °C | log10 Koc (L/kg): 2.59; log10 vapour pressure (mmHg): -5.56; ready biodegradability: not readily biodegradable
CON(C)C(=O)Nc1ccc(Cl)c(Cl)c1 | – | 93 °C | log10 Koc (L/kg): 2.7; log10 vapour pressure (mmHg): -5.84; ready biodegradability: not readily biodegradable; log10 BCF: 1.25; log10 biotransformation half-life (days): -0.97
C[SiH]1O[SiH](C)O[SiH](C)O[SiH](C)O1 (stereo not given) | 134 °C | -65 °C | –
CN1C(=O)OC(C)(C)C1=O | – | 46 °C | –
C[Si](C)(C)N=C=N[Si](C)(C)C | 164 °C | -23 °C | –
CC(=O)OC1CCC(C(C)(C)C)CC1 (stereo not given) | – | -50 °C | log10 vapour pressure (mmHg): -2.12
COc1nc(Cl)c(Cl)cc1Cl | – | – | log10 Koc (L/kg): 2.96

Compound | boiling point | melting point | also measured
FC(F)(F)C(Cl)(Cl)C(F)(F)Cl | 72 °C | -4.3 °C | –
C=CCC | -6.2 °C | -185 °C | log10 Henry constant (atm·m³/mol): -0.633; log10 vapour pressure (mmHg): 3.35
CCNc1nc(Cl)nc(N(CC)CC)n1 | – | 101 °C | log10 Koc (L/kg): 2.76
O=Cc1c(F)c(F)cc(F)c1F | 178 °C | – | –
COCC1CCCO1 (stereo not given) | 140 °C | – | –
CC(C)COP(=O)(OCC(C)C)OCC(C)C | 264 °C | – | –
c1ccc(C2(N3CCCCC3)CCCCC2)cc1 | – | 46.5 °C | –
Clc1ccc(-c2ccccc2Cl)c(Cl)c1 | – | – | log10 Koc (L/kg): 4.84
C=CCCCCCCCCCCCCCCCCCCCC | 367 °C | 38 °C | –
Cc1cn([C@H]2CC[C@@H](CO)O2)c(=O)[nH]c1=O | – | 156 °C | –
O=C(O)c1cccc2cccc(C(=O)O)c12 | – | 260 °C | –
CCC(Cl)[N+](=O)[O-] (stereo not given) | 142 °C | – | –
CCCCCCCCCC(=O)N(CCO)CCO | – | – | ready biodegradability: readily biodegradable
CCOC(=O)c1cn2nc(OP(=S)(OCC)OCC)cc2nc1C | – | 51 °C | –
Clc1ccc2c(c1)Oc1ccccc1O2 | – | 88 °C | log10 vapour pressure (mmHg): -4.89
c1cc2c(c3c1CCCC3)CCCC2 | 295 °C | 16.7 °C | log10 biotransformation half-life (days): 0.76
COC(=O)C1CC1 | 115 °C | – | –
O=C(O)Cc1ccc(O)cc1 | – | 152 °C | –
C=C(C)c1ccc(O)cc1 | – | – | ready biodegradability: not readily biodegradable
COc1ccc(C(=CC(=O)N2CCOCC2)c2ccc(Cl)cc2)cc1OC | – | 148 °C | log10 vapour pressure (mmHg): -8.13
CC(=O)C(C)CO (stereo not given) | – | – | log10 vapour pressure (mmHg): -0.646
FC(F)I | 21.6 °C | -122 °C | –
Ic1cccc(I)c1 | 285 °C | 40.4 °C | –
C1COCCOCCOCCO1 | – | 16 °C | –
COc1ccc2ccc(=O)oc2c1CC=C(C)C | – | 83.5 °C | –

Compound | boiling point | melting point | also measured
CCCCCCCCCCCCCCCCCCNC(=O)N1CC1 | – | – | ready biodegradability: not readily biodegradable
CCOC(=O)c1c(Cl)c(Cl)c(Cl)c(Cl)c1C(=O)O | – | 94.5 °C | –
COP(=O)(OC)O/C(=C\Cl)c1ccc(Cl)cc1Cl | – | 69.5 °C | log10 vapour pressure (mmHg): -5.01
Cc1c2ccccc2nc2ccccc12 | – | 118 °C | –
O=CCCCl | 130 °C | – | –
CC=CCCl | 80.7 °C | – | log10 vapour pressure (mmHg): 1.84
O=Cc1ccc(O)cc1 | 310 °C | 117 °C | log10 Henry constant (atm·m³/mol): -9.29; log10 vapour pressure (mmHg): -3.95; ready biodegradability: readily biodegradable
CC(C)c1cccc2ccccc12 | 268 °C | -16 °C | log10 vapour pressure (mmHg): -2.22
CC1Cc2ccccc2N1NC(=O)c1ccc(Cl)c(S(N)(=O)=O)c1 (stereo not given) | – | 161 °C | –
CC(O)c1ccco1 (stereo not given) | 162 °C | – | –
OCCOc1cccc2ccccc12 | – | 45 °C | –
CCOC(=O)C1CC1 | 134 °C | – | –
O=C(O)c1cc(Oc2ccc(C(F)(F)F)cc2Cl)ccc1[N+](=O)[O-] | – | 150 °C | log10 Koc (L/kg): 2.05
Clc1cc2c(cc1Cl)Oc1c(Cl)c(Cl)cc(Cl)c1O2 | – | 206 °C | log10 vapour pressure (mmHg): -9.23
CC(S)C(=O)NCC(=O)O (stereo not given) | – | 96 °C | –
CCCCCCCC/C=C\CCCCCCCC(=O)[O-].[NH4+] | – | 71 °C | –
O=[N+]([O-])c1ccc(Nc2ccccc2)cc1 | – | 135 °C | –
O=c1c(O)c(-c2ccccc2)oc2ccccc12 | – | 172 °C | –
CC(=O)OC(C)=O | 140 °C | -73 °C | log10 vapour pressure (mmHg): 0.708
CCCCCCCCCCCCCC(=O)OC | 295 °C | 19 °C | log10 vapour pressure (mmHg): -3.31
COC(=O)C(F)(F)C(F)(F)C(F)(F)C(F)(F)C(F)(F)C(F)(F)C(F)(F)F | 158 °C | – | –
CCCCCCCCCCCCCCCCCCN | 347 °C | 52.9 °C | –
Cc1ncc(CO)c(C=O)c1O | – | 165 °C | ready biodegradability: readily biodegradable
CCCCCCCCCCC(Br)C(=O)O (stereo not given) | – | 32 °C | –
Brc1cc(Br)c(Br)c(Oc2c(Br)c(Br)c(Br)c(Br)c2Br)c1Br | – | – | log10 BCF: 5.57

Compound | boiling point | melting point | also measured
FC(F)(F)C(F)(F)C(F)(F)C(F)(F)C(F)(F)C(F)(F)C(F)(F)C(F)(F)C(F)(F)C(F)(F)I | 195 °C | 66 °C | –
CCOS(=O)(=O)Cl | 152 °C | – | –
CC(C)CN1CCOCC1 | 181 °C | – | ready biodegradability: not readily biodegradable; log10 BCF: 0.25
Nc1nc(N)nc(N)n1 | – | – | log10 vapour pressure (mmHg): -9.44; ready biodegradability: not readily biodegradable; log10 BCF: 0.58
BrC(Br)=C(Br)Br | 226 °C | 56.5 °C | –
CC1(C)OC(=O)NC1=O | – | 76.5 °C | –
CCOS(=O)(=O)OCC | 208 °C | -24 °C | log10 vapour pressure (mmHg): -0.674; ready biodegradability: readily biodegradable
CCN(CCO)CCO | 247 °C | -50 °C | ready biodegradability: not readily biodegradable
CC1=CC=CC1 | 72.8 °C | – | log10 vapour pressure (mmHg): 2.09
CCN1CCCC1CNC(=O)c1cc(S(=O)(=O)CC)c(N)cc1OC (stereo not given) | – | 126 °C | –
CN(C)c1ccc2ccccc2c1 | 305 °C | 52.5 °C | –
CCc1cccc2c1CCCC2 | 245 °C | -44.5 °C | –
C#C[C@]1(O)CC[C@H]2[C@@H]3CCC4=Cc5oncc5C[C@]4(C)[C@H]3CC[C@@]21C | – | 226 °C | –
Oc1c(F)c(F)cc(F)c1F | 140 °C | 38 °C | –
c1coc(CSSCc2ccco2)c1 | – | 10 °C | –
CCCC(=O)C1=C(O)C(C)(C)C(O)=C(Cc2c(O)c(C)c(O)c(C(=O)CCC)c2O)C1=O | – | 156 °C | –
CC(C)OC(=O)Cl | 105 °C | – | log10 vapour pressure (mmHg): 1.57; ready biodegradability: not readily biodegradable
O=[N+]([O-])c1ccc(Sc2ccc([N+](=O)[O-])cc2)cc1 | – | 160 °C | –
CCCCCCCCCCCCCCCCO | 334 °C | 49.3 °C | log10 Koa: 9.9; log10 vapour pressure (mmHg): -5.22; ready biodegradability: readily biodegradable
Cc1cnc(C)o1 | 118 °C | – | –
CCOC(=O)C1=NN(c2ccc(Cl)cc2Cl)C(C)(C(=O)OCC)C1 (stereo not given) | – | 51 °C | log10 vapour pressure (mmHg): -7.33
CCCC=CCO | 157 °C | – | –
COC(=O)c1ccccc1N | 256 °C | 24.5 °C | log10 vapour pressure (mmHg): -1.57
c1ccc2cc(Oc3ccc4ccccc4c3)ccc2c1 | – | 105 °C | –
C=C[C@@]1(C)CC[C@H]2C(=CC[C@@H]3[C@]2(C)CCC[C@@]3(C)C(=O)O)C1 | – | 160 °C | log10 BCF: 1.63

Compound | boiling point | melting point | also measured
CCCCCCCCOC(=O)c1ccccc1C(=O)OCCCCCCCC(C)C | 447 °C | 98 °C | –
CN1CCN(C2=Nc3cc(Cl)ccc3Nc3ccccc32)CC1 | – | 184 °C | –
Brc1sc(Br)c(Br)c1Br | 326 °C | 118 °C | –
ClC(Cl)c1ccccc1 | 205 °C | -17 °C | log10 vapour pressure (mmHg): -0.328; ready biodegradability: readily biodegradable
Brc1ccc(Br)cc1 | 218 °C | 87.3 °C | log10 Koa: 5.21; log10 vapour pressure (mmHg): -1.24; ready biodegradability: not readily biodegradable; log10 BCF: 2.21; log10 biotransformation half-life (days): 0.31
O=Cc1ccncc1 | – | – | log10 Henry constant (atm·m³/mol): -6.75
CCOC(=O)CC(C)C(=O)OCC (stereo not given) | 218 °C | – | –
CC(=O)c1ccc(I)cc1 | – | 86 °C | –
CC(C)C(O)C(C)(C)CO (stereo not given) | 232 °C | 51.5 °C | log10 vapour pressure (mmHg): -2.35; ready biodegradability: readily biodegradable; log10 BCF: 0; log10 biotransformation half-life (days): -1.34
Nc1ccc2cc(S(=O)(=O)O)cc(S(=O)(=O)O)c2c1 | – | 274 °C | –
N#CCN(CC#N)CC#N | – | 126 °C | log10 vapour pressure (mmHg): -6.5
CC(=O)[C@@]1(O)CC[C@H]2[C@@H]3CC[C@H]4C[C@@H](O)CC[C@]4(C)[C@H]3CC[C@@]21C | – | 265 °C | –
Cc1cccc(Cl)n1 | 184 °C | – | –
O=C1CSC(=S)N1 | – | 170 °C | –
CCCCCCCCCCO | 231 °C | 6.9 °C | log10 Henry constant (atm·m³/mol): -4.49; log10 Koc (L/kg): 2.59; log10 vapour pressure (mmHg): -2.07; ready biodegradability: readily biodegradable
CC=C(CC)C(C)C(=O)CC (stereo not given) | – | 74.5 °C | –
CCOC(=O)CC(=O)c1ccc([N+](=O)[O-])cc1 | – | 72 °C | –
N#CC(C#N)=C(C#N)C#N | – | 199 °C | –
CC(Cl)=C(Cl)Cl | 118 °C | – | –
CC1CC(C)CC(O)C1 (stereo not given) | 187 °C | 11.6 °C | –
Cc1cc(Br)ccc1N | 240 °C | 59.5 °C | –
